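These data come from cells grown in 96-well plates and exposed to compound for 48 hours at five concentrations. GI50 is the concentration that inhibits growth by half. TGI: total growth inhibition.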
Assays:
Test in all cases: NCI anticancer screen, dose series, 48 h
[1] = test system: EKVX NSCLC
[2] = test system: RXF 393 renal
[3] = test system: MOLT-4 leukemia
[4] = test system: HL-60(TB) leukemia
[5] = test system: SK-OV-3 ovarian
[6] = test system: DMS 273 small cell lung
[7] = test system: SNB-19 CNS
[8] = test system: M19-MEL melanoma
[9] = test system: TK-10 renal
[10] = test system: HOP-92 NSCLC
[11] = test system: CCRF-CEM leukemia
[12] = test system: UACC-62 melanoma
[13] = test system: A549 NSCLC
[14] = test system: KM20L2 colon
[15] = test system: NCI-H522 lung
[16] = test system: NCI-H460 lung
[17] = test system: NCI-H23 lung
[18] = test system: SR leukemia
[19] = test system: ACHN renal
[20] = test system: M14 melanoma
[21] = test system: SK-MEL-28 melanoma
[22] = test system: HOP-62 NSCLC
[23] = test system: HT29 colon
[24] = test system: UACC-257 melanoma
[25] = test system: OVCAR-8 ovarian
[26] = test system: SF-295 CNS
[27] = test system: UO-31 renal
[28] = test system: IGROV1 ovarian
[29] = test system: HCT-116 colon
[30] = test system: OVCAR-5 ovarian
[31] = test system: A498 renal
[32] = test system: SNB-78 CNS
[33] = test system: DMS 114 small cell lung
[34] = test system: U251 CNS
[35] = test system: KM12 colon
[36] = test system: MALME-3M melanoma
[37] = test system: SF-268 CNS
[38] = test system: SF-539 CNS
[39] = test system: RPMI-8226 leukemia
[40] = test system: K-562 leukemia
[41] = test system: OVCAR-3 ovarian
[42] = test system: SK-MEL-2 melanoma
[43] = test system: LXFL 529 NSCLC
[44] = test system: SK-MEL-5 melanoma
[45] = test system: SW-620 colon
[46] = test system: HCC-2998 colon
[47] = test system: 786-0 renal
[48] = test system: CAKI-1 renal
[49] = test system: SNB-75 CNS
[50] = test system: LOX IMVI melanoma
[51] = test system: DLD-1 colon
[52] = test system: HCT-15 colon
[53] = test system: SN12C renal
[54] = test system: COLO 205 colon
[55] = test system: NCI-H226 lung
[56] = test system: HOP-18 NSCLC
[57] = test system: OVCAR-4 ovarian

C=C(C)C1CC=C(C)[C@](O)(C2(O)C[C@H](C(=C)C)CC=C2C)C1 (some centres not stated) showed a TGI [1] of over 100000 nM, a TGI [2] of over 100000 nM and a TGI [3] of over 100000 nM. For the same molecule, the TGI [4] was over 100000 nM, the TGI [5] was over 100000 nM and the TGI [6] was over 100000 nM. For the same molecule, the TGI [7] was over 100000 nM, the TGI [8] was over 100000 nM and the TGI [9] was over 100000 nM. It also gave a TGI [10] of over 100000 nM, a TGI [11] of over 100000 nM and a TGI [12] of over 100000 nM. For the same molecule, the TGI [13] was over 100000 nM, the TGI [14] was over 100000 nM and the TGI [15] was over 100000 nM. The TGI [16] was over 100000 nM, the TGI [17] was over 100000 nM and the TGI [18] was over 100000 nM. For the same molecule, the TGI [19] was over 100000 nM, the TGI [20] was over 100000 nM and the TGI [21] was over 100000 nM. The TGI [22] was over 100000 nM, the TGI [23] was over 100000 nM and the TGI [24] was over 100000 nM. It also gave a TGI [25] of over 100000 nM, a TGI [26] of over 100000 nM and a TGI [27] of over 100000 nM. For the same molecule, the TGI [28] was over 100000 nM, the TGI [29] was over 100000 nM and the TGI [30] was over 100000 nM. For the same molecule, the TGI [31] was over 100000 nM, the TGI [32] was over 100000 nM and the TGI [33] was over 100000 nM. For the same molecule, the TGI [34] was over 100000 nM and the TGI [35] was over 100000 nM.

Work on CCC[CH2][Sn]1([CH2]CCC)[O]C(=O)c2cc(I)cc(I)c2[O]1 yielded a GI50 [1] of 1350 nM, a TGI [1] of 3400 nM and a GI50 [2] of 559 nM. It also gave a TGI [2] of 1970 nM, a GI50 [36] of 1000 nM and a TGI [36] of 2230 nM. It also gave a GI50 [37] of 1290 nM, a TGI [37] of 2890 nM and a GI50 [3] of 344 nM. It also gave a TGI [3] of 1760 nM, a GI50 [4] of 400 nM and a TGI [4] of 2220 nM. It also gave a GI50 [38] of 1160 nM, a TGI [38] of 2440 nM and a GI50 [39] of 238 nM. For the same molecule, the TGI [39] was 1160 nM, the GI50 [5] was 2090 nM and the TGI [5] was 4650 nM. For the same molecule, the GI50 [6] was 1280 nM, the TGI [6] was 2820 nM and the GI50 [40] was 284 nM. For the same molecule, the TGI [40] was 1250 nM, the GI50 [41] was 1420 nM and the TGI [41] was 2770 nM. The GI50 [7] was 1270 nM, the TGI [7] was 2550 nM and the GI50 [8] was 1000 nM. For the same molecule, the TGI [8] was 2190 nM, the GI50 [42] was 491 nM and the TGI [42] was 1940 nM. It also gave a GI50 [43] of 247 nM, a TGI [43] of 1330 nM and a GI50 [9] of 1250 nM. It also gave a TGI [9] of 2520 nM, a GI50 [44] of 1540 nM and a TGI [44] of 2880 nM. For the same molecule, the GI50 [10] was 1400 nM, the TGI [10] was 2930 nM and the GI50 [11] was 220 nM. The TGI [11] was 790 nM, the GI50 [45] was 367 nM and the TGI [45] was 1570 nM. For the same molecule, the GI50 [46] was 1370 nM, the TGI [46] was 2700 nM and the GI50 [12] was 1010 nM. The TGI [12] was 2170 nM, the GI50 [13] was 2720 nM and the TGI [13] was 8410 nM. For the same molecule, the GI50 [47] was 1470 nM, the TGI [47] was 2800 nM and the GI50 [48] was 637 nM. It also gave a TGI [48] of 2150 nM, a GI50 [49] of 1040 nM and a TGI [49] of 2250 nM. The GI50 [50] was 800 nM, the TGI [50] was 2390 nM and the GI50 [14] was 1840 nM. It also gave a TGI [14] of 3390 nM, a GI50 [15] of 143 nM and a TGI [15] of 323 nM. The GI50 [16] was 1450 nM, the TGI [16] was 2760 nM and the GI50 [17] was 1180 nM. It also gave a TGI [17] of 2900 nM, a GI50 [18] of 279 nM and a TGI [18] of 1700 nM. For the same molecule, the GI50 [51] was 1150 nM, the TGI [51] was 2420 nM and the GI50 [19] was 1350 nM. It also gave a TGI [19] of 2630 nM, a GI50 [20] of 1660 nM and a TGI [20] of 3170 nM. It also gave a GI50 [52] of 1280 nM, a TGI [52] of 2930 nM and a GI50 [22] of 2130 nM. The TGI [22] was 4120 nM, the GI50 [23] was 2030 nM and the TGI [23] was 4210 nM. It also gave a GI50 [24] of 1240 nM, a TGI [24] of 2550 nM and a GI50 [53] of 1420 nM. It also gave a TGI [53] of 2960 nM, a GI50 [25] of 1410 nM and a TGI [25] of 3010 nM. The GI50 [26] was 1910 nM, the TGI [26] was 3530 nM and the GI50 [27] was 1490 nM. The TGI [27] was 2820 nM, the GI50 [54] was 702 nM and the TGI [54] was 1970 nM. The GI50 [28] was 1810 nM, the TGI [28] was 3360 nM and the GI50 [29] was 1420 nM. For the same molecule, the TGI [29] was 2720 nM, the GI50 [30] was 1990 nM and the TGI [30] was 3480 nM. For the same molecule, the GI50 [55] was 1750 nM, the TGI [55] was 3290 nM and the GI50 [56] was 1620 nM. For the same molecule, the TGI [56] was 3030 nM, the GI50 [31] was 1370 nM and the TGI [31] was 2670 nM. It also gave a GI50 [32] of 536 nM, a TGI [32] of 2370 nM and a GI50 [33] of 303 nM. The TGI [33] was 1190 nM, the GI50 [34] was 882 nM and the TGI [34] was 2100 nM. The GI50 [35] was 1610 nM, the TGI [35] was 2990 nM and the GI50 [57] was 1410 nM. The TGI [57] was 2830 nM.
